The values that follow come from patent publication US20170303554A1, “METHOD OF SANITIZING EDIBLE SEEDS, PARTICULARLY MUCILAGE PRODUCING SEEDS” (AGRI-NEO INC., priority 2014, published 2017).

In assay [1] the test system is Total count Aerobic bacteria. The assay is described as follows: Total aerobic count on seeds, grains and spices sprayed with sanitizing solutions (Example 1). The settings on record: for bactericidal effect, conclusion in words: 40 L per 1 tonne. The class given is cell-based. On the procedure:
(§1) Seeds were mechanically cleaned and spread in stainless steel containers. Each 100 grams seeds were sprayed with 4 ml total solutions descried above via conventional trigger vaporizer. This solution is equivalent to 40 L disinfecting solution total sprayed on 1-tonne seeds. Seeds, grains and spices were selected to represent all families and types of seeds, grains and spices. Another criterium was to select seeds and grains contaminated with a high count of total aerobic bacteria, yeast, mold, E. coli, Salmonella sp. and other pathogenic microorganisms.
(§2) Seeds, grains and spices treated were: • Whole dried pea, • Split pea dried, • Pea fiber, • Vanilla, • Chia, • Sprouted flax and chia, • Flax, • Hemp, and • Black pepper seeds

In a further assay the test system is Y&M (yeast and mold). Briefly: Yeast and mold (Y&M) count on sprayed seeds, grains and spices (Example 1). The class given is cell-based. To be noted: 40 L/tonne; for Y&M, Av: average; for Y&M, n1: replicate n1; for Y&M, n2: replicate n2. On the procedure: as §1, §2

Take `CCO` [2- Alcohol - ethanol, ethanol]: the “effect when combined with peracetic acid formulations (synergy), in words” value in assay [1] (black pepper), in assay [1] (hemp), in assay [1] (pea fiber), in assay [1] (split pea), in assay [1] (vanilla) and in assay [1] (whole dried pea) was “synergistic with peracetic acid” throughout. In addition, the “bactericidal effect, conclusion in words” value in assay [1] (black pepper) is recorded as “not a strong bactericidal agent”; in assay [1] (hemp), “not a strong bactericidal agent”; in assay [1] (pea fiber), “not a strong bactericidal agent”; in assay [1] (split pea), “not a strong bactericidal agent”; in assay [1] (sprouted flax and chia), “bactericidal agent but not very strong”; in assay [1] (vanilla) it was “not a strong bactericidal agent”. Also, the “bactericidal effect, conclusion in words” value in assay [1] (whole dried pea) was “not a strong bactericidal agent”. Further, the “Y&M, Av” value in the assay on Y&M (yeast and mold) (pea fiber) was “Y&M not detected”; in the assay on Y&M (yeast and mold) (whole dried pea), “Y&M not detected”; with Y&M (yeast and mold) (whole split pea), “Y&M not detected”. Further, the “Y&M, n1” value in the assay on Y&M (yeast and mold) (pea fiber) is given as “n1, n2 not detected”; in the assay on Y&M (yeast and mold) (whole dried pea) it was “n1, n2 not detected”; in the assay with Y&M (yeast and mold) (whole split pea), “n1, n2 not detected”. Moreover, the “Y&M, n2” value in the assay on Y&M (yeast and mold) (pea fiber) is “n1, n2 not detected”; in the assay with Y&M (yeast and mold) (whole dried pea), “n1, n2 not detected”; in the assay with Y&M (yeast and mold) (whole split pea), “n1, n2 not detected”.
As to `CC(=O)OO` [Peracetic acid], the “bactericidal effect, conclusion in words” value in assay [1] (black pepper), in assay [1] (hemp), in assay [1] (pea fiber), in assay [1] (split pea), in assay [1] (vanilla) and in assay [1] (whole dried pea) was “strong bactericidal agent” each time.
